≈ marks a conversion by molar mass, not a printed value.
Key:
[1] = test system: MRSA; experiment: Bacterial inhibition assay (resazurin), MIC against MRSA; assay type: cell-based, Staphylococcus aureus; design: MIC for MRSA: unit not given here
[2] = test system: M. tuberculosis H37Rv; experiment: Bacterial inhibition assay (resazurin), MIC against M. tuberculosis; assay type: cell-based, Mycobacterium tuberculosis; design: MIC for TB. H37Rv: unit not given here
[3] = test system: E. coli EC958; experiment: Bacterial inhibition assay (resazurin), MIC against E. coli; assay type: cell-based, Escherichia coli; details: synthetic compounds, 18 h incubation
[4] = test system: P. aeruginosa PAO1; experiment: Bacterial inhibition assay (resazurin), MIC against P. aeruginosa; assay type: cell-based, Pseudomonas aeruginosa; details: Pseudomonas aeruginosa, PAO1; synthetic compounds, 18 h incubation
[5] = test system: A549; assay type: cell-based; details: human, 7 days
Protocol: (§1) Human alveolar epithelial cells (A549), ([Giard et al., 1973]), Madin-Darby canine kidney epithelial cells (MDCK), ([Gaush et al., 1966]), human leukemia cells (THP-1) ([Tsuchiya et al., 1980]), human hepatocellular carcinoma cells (Hep-G2), ([Aden et al., 1979]), and human embryonic kidney cells 293 (HEK293) ([Graham et al., 1977]) were grown and differentiated in complete RPMI (Roswell Park Memorial Institute Medium) and DMEM (Dulbecco’s Modified Eagle’s medium) tissue culture media (RPMIc and DMEMc). To determine toxicity of the AIMS extract library, 2 × 10^5 of each cell type were added to a 96-well plate and left for 48 h at 37°C to adhere. Extract samples at a final concentration of 0.5 mg mL^–1 were added to the wells, then incubated for 7 days in a humidified 5% CO2 incubator at 37°C. Then resazurin (10 μL of 0.05% w/v) was added, and after 4 h, fluorescence measured as described previously. Cell viability was calculated as percentage fluorescence relative to untreated cells.

[6] = test system: HEK 293; assay type: cell-based; details: human, 7 days
Protocol: as §1

[7] = test system: HepG2; assay type: cell-based; details: human, 7 days
Protocol: as §1

[8] = test system: THP1; assay type: cell-based; details: human, 7 days
Protocol: as §1

[9] = test system: MRSA; experiment: Checkerboard assay with vancomycin against MRSA; assay type: cell-based, Staphylococcus aureus; details: MRSA
[10] = test system: M. tuberculosis H37Rv; experiment: Checkerboard assay with rifampicin against M. tuberculosis; assay type: cell-based, Mycobacterium tuberculosis
[11] = test system: MRSA; experiment: Minimum bactericidal concentration (MBC) for MRSA; assay type: cell-based, Staphylococcus aureus; design: unit not given here; details: sub-culture on agar, 18 h
[12] = test system: TB. H37Rv; experiment: Minimum bactericidal concentration (MBC) for TB; assay type: cell-based, Mycobacterium tuberculosis; design: unit not given here; details: sub-culture on agar, 7 days
[13] = test system: MRSA; experiment: Time-kill study against MRSA; assay type: cell-based, Staphylococcus aureus
[14] = test system: M. tuberculosis; experiment: Time-kill study against M. tuberculosis; assay type: cell-based, Mycobacterium tuberculosis; details: rifampicin plus compound, day 7 of treatment
Protocol: Time-kill experiments were performed by culturing MRSA and M. tuberculosis in liquid medium in the presence of six synthesized sample concentrations in doubling dilutions ranging from 8 to 0.001 × MIC and 2 × MIC for both bacteria, respectively. Growth curves were initially generated to confirm that bacteria would reach a stable early- to mid-log phase after 2 and 48 h of pre-incubation in antimicrobial-free both medium, respectively. Samples were taken in different incubation times after drug exposure at 0, 2, 4, 6, 8, and 24 h for MRSA and 24, 48 h, and 4 and 6 days for M. tuberculosis and then plated onto agar plates for CFU determination. The experiments were carried out in duplicate and repeated three times.

[15] = test system: resistant strains; experiment: MIC against resistant strains; assay type: cell-based; details: read-out: MIC against resistant strains
[16] = test system: A549, THP-1, HepG2 and HEK 293 cell lines; assay type: cell-based, human
Protocol: as §1

[17] = M. tuberculosis, compound with rifampicin

## CCCCCCCCN(CCCCCCCC)CCc1cn(-c2ccc3c4c(cccc24)C(=O)N(CC)C3=O)nn1 [Compound 18, 6-(4-(2-(Dioctylamino) Ethyl)-1H-1,2,3-Triazol-1-yl)-2-Ethyl-1H-Benzo[de]isoquinoline-1,3(2H)-Dione]
[1]; Staphylococcus aureus, MRSA, synthetic compounds, 18 h incubation
  MIC: 12.5 ± 2 µM (≈ 7 µg/mL)
[1]; Table 6 summary
  MIC for MRSA: 12.5
[2]; Mycobacterium tuberculosis, H37RV, 168 h, synthetic compounds, 7 days incubation
  MIC: 12.5 ± 1 µM (≈ 7 µg/mL)
[2]; Table 6 summary
  MIC for TB. H37Rv: 6.25
[3]; Escherichia coli, EC958
  MIC: 1.5 µM (≈ 0.84 µg/mL)
[3]
  MIC E. coli: 1.5 ± 4.0 µM (≈ 0.84 µg/mL)
[4]
  MIC: 12.5 ± 0.8 µM (≈ 7 µg/mL)
[5]
  Minimum toxicity concentration of drug (MTC) A549: >100 ± 6.0 µM
[6]
  Minimum toxicity concentration of drug (MTC) HEK 293: 3.1 ± 8.2 µM
[7]
  Minimum toxicity concentration of drug (MTC) HepG2: >100 ± 5.0 µM
[8]
  Minimum toxicity concentration of drug (MTC) THP1: >100 ± 9.0 µM
[9]; compound with vancomycin
  Drug–drug interactions: Indifference (0.25–4 indifferent or additive activity)
  FIC: 1.2
[9]; Staphylococcus aureus, compound alone
  MIC50: 12.5 µM
[10]; [17]
  Drug–drug interactions: Indifference (0.25–4 indifferent or additive activity)
  FIC: 1
[10]; Mycobacterium tuberculosis, H37RV, read-out: Compound alone MIC50 for M. tuberculosis
  MIC50: 6.25 µM
[10]; rifampicin plus compound
  Effect against M. tuberculosis in combination with rifampicin: synergistic or bactericidal effects
[11]
  MBC for MRSA: 12.5
[12]
  MBC for TB. H37Rv: 50
[13]; sub-inhibitory combinations with vancomycin
  Effect of sub-inhibitory combination with vancomycin on MRSA growth: substantially inhibited growth of MRSA
[13]; time-kill, MRSA
  Concentration at which killing was observed: 12.5 μg mL^–1
[14]
  Killing effect with rifampicin: comparable killing effects
[15]
  MIC: 2.2 µM (≈ 1.23 µg/mL)
[16]
  Toxicity against THP1 and/or HEK 293 cells: some toxicity

From PMC7729195, “Pharmacodynamic Functions of Synthetic Derivatives for Treatment of Methicillin-Resistant Staphylococcus aureus (MRSA) and Mycobacterium tuberculosis” (Frontiers in Microbiology, 2020)
